Test system: Golden Delicious apples
Test: Usability of the organic nitrogen compound for rest-breaking
Format: in vivo
Details: South Africa
Excerpt: It is to be understood that not all compounds may work on all deciduous fruit species in all orchards.

In the case of choline borate, the “Usability on Golden Delicious apples” value is reported as “could not be used”.

From patent publication US7030060B1, “Rest-breaking composition and use thereof” (Akzo Nobel N.V., priority 1999, dated 2006)
